According to patent publication US12655116B2, “Substituted isophthalic acid diamides” (Bayer Aktiengesellschaft, priority 2020, dated 2026):

What was measured:
DIGSA [1] = assay: Post-emergence herbicidal action against DIGSA; type: in vivo, Digitaria sanguinalis
In short: (§1)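 Visual % rating (0% = as untreated, 100% = dead) ~3 wk after spraying one-leaf-stage plants grown in sandy loam; WP/EC in water at 600–800 l/ha, 0.2% wetting agent.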

MATIN [2] = assay: Pre-emergence herbicidal action against MATIN; type: in vivo, Matricaria inodora
In short: (§2)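 Sandy loam pots, seeds covered with soil, then surface-treated with WP or EC formulations at 600–800 l/ha water plus 0.2% wetting agent. Greenhouse, 3 weeks. Percent damage vs untreated controls.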

ECHCG [3] = assay: Post-emergence herbicidal action against ECHCG; type: in vivo, Echinochloa crus-galli
In short: as §1

SETVI [4] = assay: Pre-emergence herbicidal action against SETVI; type: in vivo, Setaria viridis
In short: as §2

AVEFA [5] = assay: Post-emergence herbicidal action against AVEFA; type: in vivo, Avena fatua; conditions: 20 g/ha, visual assessment about 3 weeks after treatment, 100% = plants have died, 0% = like control plants
In short: as §1

AMARE [6] = assay: Post-emergence herbicidal action against AMARE; type: in vivo, Amaranthus retroflexus; conditions: 20 g/ha, visual assessment about 3 weeks after treatment, 100% = plants have died, 0% = like control plants
In short: as §1

VIOTR [7] = assay: Post-emergence herbicidal action against VIOTR; type: in vivo, Viola tricolor
In short: as §1

POLCO [8] = assay: Pre-emergence herbicidal action against POLCO; type: in vivo, Polygonum convolvulus; conditions: dosage 80 g/ha
In short: as §2

ALOMY [9] = assay: Post-emergence herbicidal action against ALOMY; type: in vivo, Alopecurus myosuroides; conditions: visual assessment about 3 weeks after treatment vs untreated controls
In short: as §1

DIGSA [10] = assay: Pre-emergence herbicidal action against DIGSA; type: in vivo, Digitaria sanguinalis
In short: as §2

VIOTR [11] = assay: Pre-emergence herbicidal action against VIOTR; type: in vivo, Viola tricolor
In short: as §2

AMARE [12] = assay: Pre-emergence herbicidal action against AMARE; type: in vivo, Amaranthus retroflexus
In short: as §2

POLCO [13] = assay: Post-emergence herbicidal action against POLCO; type: in vivo, Polygonum convolvulus; conditions: dosage 20 g/ha
In short: as §1

AVEFA [14] = assay: Pre-emergence herbicidal action against AVEFA; type: in vivo, Avena fatua
In short: as §2

LOLRI = assay: Pre-emergence herbicidal action against LOLRI; type: in vivo, Lolium rigidum; conditions: 80 g/ha
In short: as §2

ABUTH [15] = assay: Pre-emergence herbicidal action against ABUTH; type: in vivo, Abutilon theophrasti
In short: as §2

ECHCG [16] = assay: Pre-emergence herbicidal action against ECHCG; type: in vivo, Echinochloa crus-galli
In short: as §2

PHBPU [17] = assay: Post-emergence herbicidal action against PHBPU; type: in vivo, Pharbitis purpurea
In short: as §1

SETVI [18] = assay: Post-emergence herbicidal action against SETVI; type: in vivo, Setaria viridis
In short: as §1

VERPE [19] = assay: Post-emergence herbicidal action against VERPE; type: in vivo, Veronica persica
In short: as §1

ABUTH [20] = assay: Post-emergence herbicidal action against ABUTH; type: in vivo, Abutilon theophrasti; conditions: visual assessment about 3 weeks after treatment vs untreated controls
In short: as §1

PHBPU [21] = assay: Pre-emergence herbicidal action against PHBPU; type: in vivo, Pharbitis purpurea
In short: as §2

ALOMY [22] = assay: Pre-emergence herbicidal action against ALOMY; type: in vivo, Alopecurus myosuroides
In short: as §2

VERPE [23] = assay: Pre-emergence herbicidal action against VERPE; type: in vivo, Veronica persica; conditions: Veronica persica, 504 h
In short: as §2

MATIN [24] = assay: Post-emergence herbicidal action against MATIN; type: in vivo, Matricaria inodora; conditions: Tripleurospermum inodorum, 504 h
In short: as §1

[25] = 80 g/ha, scored visually after 3 weeks vs untreated controls (100% = plants have died, 0% = like control plants)
[26] = 20 g/ha, scored visually after 3 weeks, 100% = plants have died, 0% = like control plants
[27] = Ipomoea purpurea, 504 h, dosage 20 g/ha

Cn1nnnc1NC(=O)c1ccc(C(F)(F)F)c(C(=O)NCC(F)F)c1Br [Example 1-212]
Post-emergence action against DIGSA in % (DIGSA [1]; 5 g/ha): 90% | Post-emergence action against DIGSA (DIGSA [1]; 20 g/ha): 100% | Pre-emergence action against MATIN in % (MATIN [2]; dosage 20 g/ha): 90% | Pre-emergence action against MATIN in % (MATIN [2]; dosage 80 g/ha): 100% | Post-emergence action against ECHCG in % (ECHCG [3]; dosage 5 g/ha): 80% | Post-emergence action against ECHCG in % (ECHCG [3]; dosage 20 g/ha): 80% | Pre-emergence action against SETVI in % (SETVI [4]; dosage 20 g/ha): 80% | Pre-emergence action against SETVI in % (SETVI [4]; dosage 80 g/ha): 100% | Post-emergence action at 20 g/ha against AVEFA in % (AVEFA [5]): 80% | Post-emergence action at 20 g/ha against AMARE in % (AMARE [6]): 100% | Post-emergence action against VIOTR in % (VIOTR [7]; 5 g/ha): 80% | Post-emergence action against VIOTR in % (VIOTR [7]; 20 g/ha): 90% | Pre-emergence action against POLCO in % (POLCO [8]): 80% | Post-emergence action against ALOMY in % (ALOMY [9]; dosage 5 g/ha): 80% | Post-emergence action against ALOMY in % (ALOMY [9]; dosage 20 g/ha): 90% | Pre-emergence action against DIGSA in % (DIGSA [10]; dosage 20 g/ha): 100% | Pre-emergence action against DIGSA in % (DIGSA [10]; dosage 80 g/ha): 100% | Pre-emergence action against VIOTR in % (VIOTR [11]; dosage 20 g/ha): 100% | Pre-emergence action against VIOTR in % (VIOTR [11]; dosage 80 g/ha): 100% | Pre-emergence action against AMARE in % (AMARE [12]; 20 g/ha, scored visually after 3 weeks vs untreated controls, 100% = plants have died, 0% = like control plants): 100% | Pre-emergence action against AMARE in % (AMARE [12]; [25]): 100% | Post-emergence action against POLCO in % (POLCO [13]): 100% | Pre-emergence action against AVEFA (AVEFA [14]; [26]): 80% | Pre-emergence action against AVEFA in % (AVEFA [14]; 80 g/ha, pre-emergence): 90% | Pre-emergence action against LOLRI in % (LOLRI): 80% | Pre-emergence action against ABUTH (herbicidal activity) (ABUTH [15]; [25]): 100% | Pre-emergence action against ABUTH (herbicidal activity in percent) (ABUTH [15]; dosage 20 g/ha, scored visually after 3 weeks vs untreated controls, 100% = plants have died, 0% = like control plants): 80% | Pre-emergence action against ECHCG in % (ECHCG [16]; 80 g/ha): 100% | Post-emergence action against PHBPU in % (PHBPU [17]; dosage 5 g/ha): 80% | Post-emergence action against PHBPU in % (PHBPU [17]; dosage 20 g/ha): 90% | Post-emergence action against SETVI in % (SETVI [18]; dosage 5 g/ha): 80% | Post-emergence action against SETVI in % (SETVI [18]; dosage 20 g/ha): 90% | Post-emergence action against VERPE in % (VERPE [19]; 20 g/ha): 80% | Post-emergence action against ABUTH in % (ABUTH [20]; dosage 20 g/ha): 80% | Pre-emergence action against PHBPU in % (PHBPU [21]; dosage 20 g/ha): 80% | Pre-emergence action against PHBPU in % (PHBPU [21]; dosage 80 g/ha): 80% | Pre-emergence action against ALOMY (ALOMY [22]; [26]): 100% | Pre-emergence action against ALOMY (herbicidal activity) (ALOMY [22]; 80 g/ha, pre-emergence, scored visually after 3 weeks vs untreated controls (100% = plants have died, 0% = like control plants)): 100%

CCc1c(C(=O)Nc2nnnn2C)ccc(C(F)(F)F)c1C(=O)NC [Example 1-271]
pest or weed control at 5 g/ha (DIGSA [1]; Digitaria sanguinalis, 504 h, 5 g/ha): 90% | pest or weed control at 20 g/ha (DIGSA [1]; Digitaria sanguinalis, 504 h, 20 g/ha): 100% | pest or weed control at 20 g/ha (MATIN [2]; Tripleurospermum inodorum, 504 h, dosage 20 g/ha): 100% | pest or weed control at 80 g/ha (MATIN [2]; Tripleurospermum inodorum, 504 h, dosage 80 g/ha): 100% | pest or weed control at 20 g/ha (VERPE [23]; dosage 20 g/ha): 90% | pest or weed control at 80 g/ha (VERPE [23]; dosage 80 g/ha): 100% | pest or weed control at 5 g/ha (ECHCG [3]; Echinochloa crus-galli, 504 h, dosage 5 g/ha): 80% | pest or weed control at 20 g/ha (ECHCG [3]; Echinochloa crus-galli, 504 h, dosage 20 g/ha): 80% | pest or weed control at 80 g/ha (SETVI [4]; Setaria viridis, 504 h, dosage 80 g/ha): 100% | pest or weed control at 20 g/ha (AVEFA [5]; Avena fatua, 504 h): 80% | pest or weed control at 5 g/ha (MATIN [24]; dosage 5 g/ha): 90% | pest or weed control at 20 g/ha (MATIN [24]; dosage 20 g/ha): 90% | pest or weed control at 20 g/ha (AMARE [6]; Amaranthus retroflexus, 504 h): 90% | pest or weed control at 20 g/ha (VIOTR [7]; Viola tricolor, 504 h, 20 g/ha): 90% | pest or weed control at 80 g/ha (POLCO [8]; Fallopia convolvulus, 504 h): 80% | pest or weed control at 5 g/ha (ALOMY [9]; Alopecurus myosuroides, 504 h, dosage 5 g/ha): 80% | pest or weed control at 20 g/ha (ALOMY [9]; Alopecurus myosuroides, 504 h, dosage 20 g/ha): 90% | pest or weed control at 20 g/ha (DIGSA [10]; Digitaria sanguinalis, 504 h, dosage 20 g/ha): 100% | pest or weed control at 80 g/ha (DIGSA [10]; Digitaria sanguinalis, 504 h, dosage 80 g/ha): 100% | pest or weed control at 20 g/ha (VIOTR [11]; Viola tricolor, 504 h, dosage 20 g/ha): 100% | pest or weed control at 80 g/ha (VIOTR [11]; Viola tricolor, 504 h, dosage 80 g/ha): 100% | pest or weed control at 20 g/ha (AMARE [12]; Amaranthus retroflexus, 504 h, 20 g/ha, scored visually after 3 weeks vs untreated controls, 100% = plants have died, 0% = like control plants): 100% | pest or weed control at 80 g/ha (AMARE [12]; Amaranthus retroflexus, 504 h, 80 g/ha, scored visually after 3 weeks vs untreated controls, 100% = plants have died, 0% = like control plants): 100% | pest or weed control at 20 g/ha (POLCO [13]; Fallopia convolvulus, 504 h): 80% | pest or weed control at 80 g/ha (AVEFA [14]; Avena fatua, 504 h, 80 g/ha, pre-emergence): 80% | pest or weed control at 80 g/ha (LOLRI; Lolium rigidum, 504 h): 100% | pest or weed control at 80 g/ha (ABUTH [15]; Abutilon theophrasti, 504 h, 80 g/ha, scored visually after 3 weeks vs untreated controls (100% = plants have died, 0% = like control plants)): 100% | pest or weed control at 20 g/ha (ABUTH [15]; Abutilon theophrasti, 504 h, dosage 20 g/ha, scored visually after 3 weeks vs untreated controls, 100% = plants have died, 0% = like control plants, read-out: Pre-emergence action against ABUTH (herbicidal activity in percent)): 100% | pest or weed control at 20 g/ha (ECHCG [16]; Echinochloa crus-galli, 504 h, 20 g/ha): 90% | pest or weed control at 80 g/ha (ECHCG [16]; Echinochloa crus-galli, 504 h, 80 g/ha): 100% | pest or weed control at 20 g/ha (PHBPU [17]; [27]): 90% | pest or weed control at 20 g/ha (SETVI [18]; Setaria viridis, 504 h, dosage 20 g/ha): 80% | pest or weed control at 5 g/ha (VERPE [19]; Veronica persica, 504 h, 5 g/ha): 80% | pest or weed control at 20 g/ha (VERPE [19]; Veronica persica, 504 h, 20 g/ha): 90% | pest or weed control at 5 g/ha (ABUTH [20]; Abutilon theophrasti, 504 h, dosage 5 g/ha): 80% | pest or weed control at 20 g/ha (ABUTH [20]; Abutilon theophrasti, 504 h, dosage 20 g/ha): 90% | pest or weed control at 20 g/ha (PHBPU [21]; [27]): 80% | pest or weed control at 80 g/ha (PHBPU [21]; Ipomoea purpurea, 504 h, dosage 80 g/ha): 90% | pest or weed control at 80 g/ha (ALOMY [22]; Alopecurus myosuroides, 504 h, 80 g/ha, pre-emergence, scored visually after 3 weeks vs untreated controls (100% = plants have died, 0% = like control plants)): 90%
